Reference: patent US20250235496A1, “USE OF BELLIDIFOLIN (BEL) AND/OR BEL-CONTAINING EXTRACT IN PREPARATION OF ANTIDEPRESSANT PRODUCT” (priority 2024, published 2025)
Where a name gives a salt, the structure may show the parent alone.

What was measured:
[1] = system: 5-HT2A; test: 5-HT2A protein expression in hippocampus (immunoblot); assay type: in vivo, mice; conditions: 21 d, vs model group
Description: (§1) There was no significant difference in the expression of p-CREB protein among the groups.

[2] = system: mice; test: Acute toxicity study of BEL in mice; assay type: in vivo
[3] = system: 5-HT1A; test: 5-HT1A protein expression in hippocampus (immunoblot); assay type: in vivo, mice; conditions: 10 and 20 mg/kg, 21 d, vs model group
Description: as §1

[4] = system: CORT; test: Serum CORT level, BEL study; assay type: in vivo; conditions: CORT-induced mice
Description: (§2) Behavioral experiments were conducted once a week, and the serum 5-HT and CORT levels of mice were recorded.

[5] = system: CORT-induced Kunming mouse model; test: In vivo antidepressant study of BEL: behavioral tests (FST, TST, SPT, NSFT); parameters: species or system Kunming (KM) mice; conditions: CORT-induced mice
[6] = system: CORT-induced Kunming mouse model; test: In vivo antidepressant study of BEL: body weight, diet, water intake; parameters: species or system Kunming (KM) mice; conditions: 21 d, CORT-induced mice
Description: After one week of adaptive feeding of experimental mice, 10 mice were randomly selected from 150 mice as a normal group, and the mice in the normal group were not treated in any way. […] The dosing volume was changed once a week according to the weight of the mice, and the mice were subcutaneously administered in the groin of the hind limb between 9:00 and 11:00 am every day. During the modeling, the weight, diet, and water intake of the mice were recorded, and the relevant data were counted once a week until the modeling was completed. During the modeling, the mice were subjected to behavioral analysis. 4 behavioral test designs were designed: FST, TST, SPT, and NSFT. […] There were 5 mice/cage in the normal group and 5 mice/cage in the model group. […] Behavioral experiments were conducted once a week, and the serum 5-HT and CORT levels of mice were recorded. The results were shown in Tables 3 to 5 and FIG. 12A to FIG. 14B.

[7] = system: neurons in the hippocampus of mice; test: H & E staining and immunofluorescence histochemistry of hippocampus; assay type: in vivo; conditions: 21 d of administration, CORT-induced mice
Description: [0170](2) After 21 d of drug administration, the hippocampus of mice in each treatment group was stained with H & E, and the proliferation of neurons in the hippocampus of mice was detected by immunofluorescence histochemistry.
(§3) Compared with the normal group, the hippocampus structure of the model group mice was abnormal, the cells were wrinkled and then irregularly arranged. After administration, the hippocampus structure returned to normal and the cells were arranged regularly. […] [0172](3) After 21 d of drug administration, brain tissues of mice in each treatment group were collected for Golgi staining.

[8] = Mass spectrometry imaging of mouse brain; assay type: in vivo, mice; conditions: mass spectrometry imaging, 21 d
[9] = system: CREB; test: CREB / p-CREB protein expression in hippocampus (immunoblot); assay type: in vivo, mice; conditions: 21 d
Description: as §1

[10] = system: HT22 cells; test: CORT-induced HT22 cell viability, BEL; assay type: cell-based; conditions: Mus musculus, HT-22, 250 μM CORT, 24 h, model = 100.00
[11] = system: hippocampal neurons; test: Golgi staining of brain tissue: neuron dendrite length and dendritic spine density; assay type: in vivo, mice; conditions: 21 d; for Neuron dendrite length, Maximum / Neuron dendrite length, Mean / Neuron dendrite length, Minimum: mouse hippocampus
Description: as §3
• (4) After 21 d of drug administration, the dendritic spine density of neurons in the hippocampus of mice was counted. […] The effect intensity was as follows: 10 mg/kg BEL treatment group >20 mg/kg BEL treatment group BEL 40 mg/kg BEL treatment group.

[12] = system: Arg1; test: Arg1 protein expression in hippocampus (immunoblot); assay type: in vivo, mice; conditions: 10 mg/kg, 21 d, vs model group
Description: as §1

[13] = system: 5-HT; test: Serum 5-HT level, BEL study; assay type: in vivo; conditions: CORT-induced mice
Description: as §2

[14] = serum, 214 mg/kg gavage, 3 times within 24 h

## COc1cc(O)c2c(=O)c3c(O)ccc(O)c3oc2c1 [BEL, bellidifolin]
[1]
  Expression of 5-HT2A protein in hippocampus: had no effect on the expression of 5-HT2A
[2]; 214 mg/kg gavage 3 times within 24 h, subsequent 14-d observation
  Observation during 14-d period: did not show any abnormalities
[2]; 214 mg/kg gavage, 3 times within 24 h
  Toxic side effects (weight, brain, liver, kidneys): no toxic side effects on mice
[2]; 214 mg/kg gavage, 3 times within 24 h, 14 d observation
  Weight: 39.18 ± 3.94 g
[2]; 214 mg/kg gavage, 20 min after the second treatment
  Observation after treatment: slight tremors, which disappeared after 2 min
[2]; [14]
  ALT: 26.85 ± 6.22 U/L
  AST: 48.73 ± 4.15 U/L
  CRE: 23.20 ± 5.69 µmol/L
[3]
  Expression of 5-HT1A protein in hippocampus: could significantly promote the expression of 5-HT1A protein
[4]; 10 mg/kg/d gavage
  Serum CORT: 107.08 ± 8.16 ng/mL
[4]; 20 mg/kg/d gavage
  Serum CORT: 111.82 ± 8.27 ng/mL
[4]; 40 mg/kg/d gavage
  Serum CORT: 93.63 ± 11.48 ng/mL
[5]; 10 mg/kg/d gavage
  FST immobility time: 145.00 ± 36.40 s
  NSFT start time of eating: 42.75 ± 31.56 s
  SPT sugar water preference: 13.72 ± 0.30 %
  TST immobility time: 27.50 ± 16.05 s
[5]; 20 mg/kg/d gavage
  FST immobility time: 127.14 ± 36.38 s
  NSFT start time of eating: 57.14 ± 35.77 s
  SPT sugar water preference: 12.41 ± 3.32%
  TST immobility time: 47.22 ± 35.19 s
[5]; 40 mg/kg/d gavage
  FST immobility time: 193.33 ± 25.98 s
  NSFT start time of eating: 38.78 ± 22.73 s
  SPT sugar water preference: 8.75 ± 0.18%
  TST immobility time: 98.75 ± 66.35 s
[6]; 10 mg/kg/d gavage
  Body weight: 37.19 ± 3.35 g
  Diet: 4.02 ± 0.03 g/day
  Water intake: 4.72 ± 0.42 g/day
[6]; 20 mg/kg/d gavage
  Body weight: 37.33 ± 3.30 g
  Diet: 4.48 ± 0.45 g/day
  Water intake: 4.87 ± 0.99 g/day
[6]; 40 mg/kg/d gavage
  Body weight: 36.31 ± 3.72 g
  Diet: 5.14 ± 1.00 g/day
  Water intake: 6.82 ± 0.45 g/day
[7]
  Proliferation of neurons in the hippocampus (immunohistofluorescence): could promote the proliferation of neurons in the mouse hippocampus
[8]
  Distribution in brain: mainly distributed in the hypothalamus, amygdala, hippocampus, and cortex of mice
[9]; 10 mg/kg, reduced level in model group
  CREB protein level in hippocampus: could significantly reverse this phenomenon
[9]; 40 mg/kg, vs model group
  Phosphorylation level of CREB in hippocampus: significantly decreased
[10]
  viability at 0.0625 µM: 103 ± 5.03%
  viability at 0.125 µM: 107 ± 2.64%
  viability at 0.25 µM: 115 ± 3.93%
  viability at 0.5 µM: 120 ± 3.97%
  viability at 1 µM: 139 ± 5.34%
[11]; 10 mg/kg/d gavage
  Neuron dendrite length, Maximum: 1853.00 μm
  Neuron dendrite length, Mean: 75.66 ± 60.55 μm
  Neuron dendrite length, Minimum: 5.86 μm
[11]; 20 mg/kg/d gavage
  Neuron dendrite length, Maximum: 2297.92 μm
  Neuron dendrite length, Mean: 140.64 ± 73.11 μm
  Neuron dendrite length, Minimum: 6.32 μm
[11]; 40 mg/kg/d gavage
  Neuron dendrite length, Maximum: 194.06 μm
  Neuron dendrite length, Mean: 51.73 ± 33.73 μm
  Neuron dendrite length, Minimum: 6.04 μm
[11]; 10, 20 and 40 mg/kg, vs model group
  Dendritic spine density of hippocampal neurons: could significantly increase the dendritic spine density
[11]; 10 and 20 mg/kg
  Number and length of neurons in the hippocampus (Golgi staining): increased the number of neurons and the length of neurons
[12]
  Expression of Arg1 protein in hippocampus: could significantly reverse the decrease in Arg1 expression
[13]; 10 mg/kg/d gavage
  Serum 5-HT: 134.29 ± 12.34 ng/mL
[13]; 20 mg/kg/d gavage
  Serum 5-HT: 216.11 ± 3.34 ng/mL
[13]; 40 mg/kg/d gavage
  Serum 5-HT: 133.42 ± 30.76 ng/mL

## CNCCC(Oc1ccc(C(F)(F)F)cc1)c1ccccc1 (stereo not shown) [Flu, fluoxetine hydrochloride, reference compound]
[4]; 20 mg/kg/d gavage
  Serum CORT: 152.77 ± 11.25 ng/mL
[5]; 20 mg/kg/d gavage
  FST immobility time: 178.50 ± 36.52 s
  NSFT start time of eating: 84.50 ± 32.69 s
  SPT sugar water preference: 13.28 ± 0.56 %
  TST immobility time: 71.43 ± 40.80 s
[6]; 20 mg/kg/d gavage
  Body weight: 27.03 ± 1.74 g
  Diet: 3.90 ± 0.39 g/day
  Water intake: 4.00 ± 0.97 g/day
[10]
  viability at 0.0625 µM: 103 ± 4.06%
  viability at 0.125 µM: 108 ± 3.95%
  viability at 0.25 µM: 111 ± 1.64%
  viability at 0.5 µM: 112 ± 2.77%
  viability at 1 µM: 123 ± 8.39%
[11]; 20 mg/kg/d gavage
  Neuron dendrite length, Maximum: 180.19 μm
  Neuron dendrite length, Mean: 54.65 ± 32.76 μm
  Neuron dendrite length, Minimum: 6.57 μm

## CN(C)CCCN1c2ccccc2CCc2ccccc21 [Imi, imipramine hydrochloride, reference compound]
[4]; 20 mg/kg/d gavage
  Serum CORT: 143.19 ± 12.30 ng/mL
[5]; 20 mg/kg/d gavage
  FST immobility time: 163.00 ± 38.09 s
  NSFT start time of eating: 65.11 ± 32.90 s
  SPT sugar water preference: 8.32 ± 0.12%
  TST immobility time: 76.43 ± 46.52 s
[6]; 20 mg/kg/d gavage
  Body weight: 34.41 ± 1.80 g
  Diet: 4.38 ± 0.45 g/day
  Water intake: 4.92 ± 0.40 g/day
[11]; 20 mg/kg/d gavage
  Neuron dendrite length, Maximum: 172.10 μm
  Neuron dendrite length, Mean: 37.66 ± 25.07 μm
  Neuron dendrite length, Minimum: 5.95 μm
[13]; 20 mg/kg/d gavage
  Serum 5-HT: 130.24 ± 13.65 ng/mL
